Source: patent US20100286154A1, “ANTIHELMINTIC PASTE” (priority 2007, published 2010)

Assay: Paste stability test (storage in glass containers, assay of active ingredients by HPLC)
Type: physicochemical
Conditions: paste composition of Example 2, glass containers
Text: The paste composition of Example 2 was stored in glass containers at different temperatures for up to 12 months and assay of both active ingredients followed by HPLC analysis at given time points (3-, 6- and 12-months).

In the case of `O=C(C1CCCCC1)N1CC(=O)N2CCc3ccccc3C2C1` (stereo not drawn) [Praziquantel, 2-(cyclohexylcarbonyl)-1,2,3,6,7,11b-hexahydro-4H-pyrazino[2,1-a]isoquinoline-4-one], the “Content in % of start value” (5° C., 3 month) is reported as 102.20%, the “Content in % of start value” (5° C., 6 month) is reported as 103.98% and the “Content in % of start value” (5° C., 12 month) is reported as 103.56%. For the same molecule, the “Content in % of start value” (25° C., 3 month) was 102.52%, the “Content in % of start value” (25° C., 6 month) was 101.99% and the “Content in % of start value” (25° C., 12 month) was 102.73%. The “Content in % of start value” (30° C., 3 month) was 100.63%, the “Content in % of start value” (30° C., 6 month) was 102.31% and the “Content in % of start value” (30° C., 12 month) was 102.62%. For the same molecule, the “Content in % of start value” (40° C., 3 month) was 101.36%, the “Content in % of start value” (40° C., 6 month) was 102.10% and the “Content in % of start value” (40° C., 12 month) was 100.94%.
